The record followed here is ChEMBL document CHEMBL5715260, “Selectivity Literature for EUbOPEN Chemogenomic Library” (2024).

Design in all cases: recommended concentration 1 uM
Assay [1] concerns the target T1, Hepatocyte nuclear factor 4-alpha (Homo sapiens) (UniProt P41235).
T1 sequence (whole entry): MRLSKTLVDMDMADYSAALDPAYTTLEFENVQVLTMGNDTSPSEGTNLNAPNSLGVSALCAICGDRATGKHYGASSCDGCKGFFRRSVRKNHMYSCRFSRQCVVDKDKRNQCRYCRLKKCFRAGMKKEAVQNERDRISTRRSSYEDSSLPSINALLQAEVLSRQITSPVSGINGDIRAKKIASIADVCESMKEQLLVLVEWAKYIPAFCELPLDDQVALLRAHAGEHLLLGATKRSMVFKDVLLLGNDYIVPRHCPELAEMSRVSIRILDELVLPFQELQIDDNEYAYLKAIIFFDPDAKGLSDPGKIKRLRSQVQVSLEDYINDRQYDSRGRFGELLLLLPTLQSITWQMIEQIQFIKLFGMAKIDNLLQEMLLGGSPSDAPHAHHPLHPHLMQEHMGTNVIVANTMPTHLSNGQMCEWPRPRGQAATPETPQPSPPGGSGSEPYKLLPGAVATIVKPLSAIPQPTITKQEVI
Kind of assay: Selectivity interaction (Reporter gene assay) EUB0001145aNa HNF4A.

Assay [2] has as its target T2, Nuclear receptor subfamily 2 group C member 1 (Homo sapiens) (UniProt P13056).
T2 sequence (whole entry): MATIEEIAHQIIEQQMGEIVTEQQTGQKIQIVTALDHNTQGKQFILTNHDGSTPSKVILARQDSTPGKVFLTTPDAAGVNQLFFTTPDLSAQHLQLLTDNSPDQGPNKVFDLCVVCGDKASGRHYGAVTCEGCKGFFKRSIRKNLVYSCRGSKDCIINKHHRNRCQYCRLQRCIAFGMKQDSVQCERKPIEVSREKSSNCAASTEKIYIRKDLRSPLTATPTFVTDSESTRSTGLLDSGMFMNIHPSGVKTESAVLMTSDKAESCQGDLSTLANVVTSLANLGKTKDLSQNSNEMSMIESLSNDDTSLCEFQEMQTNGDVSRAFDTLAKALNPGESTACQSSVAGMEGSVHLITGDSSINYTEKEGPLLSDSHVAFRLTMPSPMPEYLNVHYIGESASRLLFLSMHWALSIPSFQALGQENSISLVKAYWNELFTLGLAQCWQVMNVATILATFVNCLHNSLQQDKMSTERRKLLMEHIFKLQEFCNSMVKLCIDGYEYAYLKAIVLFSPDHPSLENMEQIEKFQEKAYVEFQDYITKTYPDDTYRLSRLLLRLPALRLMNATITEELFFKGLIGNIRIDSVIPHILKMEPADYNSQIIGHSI
The assay is described as follows: Selectivity interaction (Reporter gene assay) EUB0001145aNa NR2C1. (In general: In a reporter assay the amount or activity of a reporter protein is the signal.)

The target in assay [3] is Nuclear receptor subfamily 2 group E member 1 (Homo sapiens) (UniProt Q9Y466). Kind of assay: Selectivity interaction (Reporter gene assay) EUB0001145aNa NR2E1.
Sequence of Nuclear receptor subfamily 2 group E member 1 (Homo sapiens) (Q9Y466 whole entry): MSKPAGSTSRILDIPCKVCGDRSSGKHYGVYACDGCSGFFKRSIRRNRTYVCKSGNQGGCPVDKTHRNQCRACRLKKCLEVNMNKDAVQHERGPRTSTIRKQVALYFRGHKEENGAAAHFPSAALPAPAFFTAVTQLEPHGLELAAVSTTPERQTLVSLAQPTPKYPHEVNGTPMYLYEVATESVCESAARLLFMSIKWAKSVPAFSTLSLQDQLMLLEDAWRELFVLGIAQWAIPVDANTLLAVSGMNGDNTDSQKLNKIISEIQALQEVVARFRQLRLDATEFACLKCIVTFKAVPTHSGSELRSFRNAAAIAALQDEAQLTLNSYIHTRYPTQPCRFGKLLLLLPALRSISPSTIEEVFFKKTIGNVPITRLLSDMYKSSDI
Assay [4] has as its target Nuclear receptor subfamily 4immunitygroup A member 1 (Homo sapiens) (UniProt P22736). The assay is described as follows: Selectivity interaction (Reporter gene assay) EUB0001145aNa NR4A1.
Assay [5] has as its target Steroidogenic factor 1 (Homo sapiens) (UniProt Q13285). Kind of assay: Selectivity interaction (Reporter gene assay) EUB0001145aNa NR5A1.
For assay [6], the target named is T3, Alpha trans-inducing protein (Human alphaherpesvirus 1) (UniProt A0A5J6DW59). The assay is described as follows: Selectivity interaction (Reporter gene assay) EUB0001145aNa UL48.
T3 sequence (A0A5J6DW59 as listed by the source): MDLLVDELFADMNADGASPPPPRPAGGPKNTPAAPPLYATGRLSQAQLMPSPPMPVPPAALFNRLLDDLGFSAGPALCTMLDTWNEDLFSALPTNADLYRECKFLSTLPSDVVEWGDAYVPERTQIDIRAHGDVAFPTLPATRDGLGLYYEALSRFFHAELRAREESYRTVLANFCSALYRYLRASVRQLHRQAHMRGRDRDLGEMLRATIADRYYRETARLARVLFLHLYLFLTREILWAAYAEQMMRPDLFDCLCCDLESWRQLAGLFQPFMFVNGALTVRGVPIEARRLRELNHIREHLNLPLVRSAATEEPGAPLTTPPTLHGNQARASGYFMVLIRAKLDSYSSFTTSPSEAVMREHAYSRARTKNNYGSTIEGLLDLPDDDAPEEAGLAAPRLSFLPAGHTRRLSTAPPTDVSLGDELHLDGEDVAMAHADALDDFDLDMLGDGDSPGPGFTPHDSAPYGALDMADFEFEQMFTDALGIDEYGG
The target in assay [7] is T4, Retinoic acid receptor RXR-alpha (Homo sapiens) (UniProt P19793).
T4 sequence (whole entry): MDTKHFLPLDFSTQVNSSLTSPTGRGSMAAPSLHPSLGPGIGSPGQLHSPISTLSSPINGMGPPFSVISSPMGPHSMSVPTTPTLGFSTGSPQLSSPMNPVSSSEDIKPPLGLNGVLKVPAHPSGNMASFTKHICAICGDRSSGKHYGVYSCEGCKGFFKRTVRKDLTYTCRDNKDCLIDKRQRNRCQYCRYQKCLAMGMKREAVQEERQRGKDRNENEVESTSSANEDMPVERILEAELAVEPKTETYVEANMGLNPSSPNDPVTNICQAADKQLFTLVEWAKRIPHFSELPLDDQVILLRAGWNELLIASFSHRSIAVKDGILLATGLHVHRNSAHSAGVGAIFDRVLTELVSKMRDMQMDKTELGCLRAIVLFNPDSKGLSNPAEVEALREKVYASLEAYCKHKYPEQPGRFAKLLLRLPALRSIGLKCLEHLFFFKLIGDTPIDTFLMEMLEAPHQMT
The assay is described as follows: Selectivity interaction (Reporter gene assay) EUB0001145aNa RXRA. To be noted: reference bexarotene 1 uM, Selectivity number of off-targets 0.0, Selectivity number of targets 1.0, Source Knowledge inhouse.

Assay [8] addresses T1, Hepatocyte nuclear factor 4-alpha (Homo sapiens). The assay is described as follows: Selectivity interaction (Reporter gene assay) EUB0001147a HNF4A.
For assay [9], the target named is T2, Nuclear receptor subfamily 2 group C member 1 (Homo sapiens). Kind of assay: Selectivity interaction (Reporter gene assay) EUB0001147a NR2C1.
In assay [10] the target is Nuclear receptor subfamily 2 group E member 1 (Homo sapiens) (UniProt Q9Y466). The assay is described as follows: Selectivity interaction (Reporter gene assay) EUB0001147a NR2E1.
For assay [11], the target named is Nuclear receptor subfamily 4immunitygroup A member 1 (Homo sapiens) (UniProt P22736). The assay is described as follows: Selectivity interaction (Reporter gene assay) EUB0001147a NR4A1.
Sequence of Nuclear receptor subfamily 4immunitygroup A member 1 (Homo sapiens) (P22736 whole entry): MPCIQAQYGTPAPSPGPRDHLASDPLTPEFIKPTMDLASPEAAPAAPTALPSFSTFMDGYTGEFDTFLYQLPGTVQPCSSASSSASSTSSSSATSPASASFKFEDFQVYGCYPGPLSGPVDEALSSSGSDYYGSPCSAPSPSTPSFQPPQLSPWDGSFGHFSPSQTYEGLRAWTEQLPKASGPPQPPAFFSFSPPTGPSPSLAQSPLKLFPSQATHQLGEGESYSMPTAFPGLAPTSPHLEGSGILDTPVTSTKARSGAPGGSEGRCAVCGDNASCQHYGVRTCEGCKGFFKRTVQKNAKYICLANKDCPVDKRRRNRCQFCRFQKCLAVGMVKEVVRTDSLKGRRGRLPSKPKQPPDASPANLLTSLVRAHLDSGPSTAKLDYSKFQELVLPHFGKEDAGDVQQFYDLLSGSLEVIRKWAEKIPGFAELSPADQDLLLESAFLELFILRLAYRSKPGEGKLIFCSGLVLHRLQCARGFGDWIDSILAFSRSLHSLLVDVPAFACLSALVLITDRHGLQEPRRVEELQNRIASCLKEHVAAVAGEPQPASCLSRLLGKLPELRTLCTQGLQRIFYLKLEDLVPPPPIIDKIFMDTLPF
Assay [12] has as its target Steroidogenic factor 1 (Homo sapiens) (UniProt Q13285). Kind of assay: Selectivity interaction (Reporter gene assay) EUB0001147a NR5A1.
For assay [13], the target named is T3, Alpha trans-inducing protein (Human alphaherpesvirus 1). The assay is described as follows: Selectivity interaction (Reporter gene assay) EUB0001147a UL48.
Assay [14] has as its target T4, Retinoic acid receptor RXR-alpha (Homo sapiens). Kind of assay: Selectivity interaction (Reporter gene assay) EUB0001147a RXRA. To be noted: reference bexarotene 1 uM, Selectivity number of off-targets 0.0, Selectivity number of targets 1.0, Source Knowledge inhouse.
Assay [15] concerns the target T1, Hepatocyte nuclear factor 4-alpha (Homo sapiens). The assay is described as follows: Selectivity interaction (Reporter gene assay) EUB0001148a HNF4A.
Assay [16] addresses T2, Nuclear receptor subfamily 2 group C member 1 (Homo sapiens). The assay is described as follows: Selectivity interaction (Reporter gene assay) EUB0001148a NR2C1.
Assay [17] concerns the target Nuclear receptor subfamily 2 group E member 1 (Homo sapiens) (UniProt Q9Y466). Kind of assay: Selectivity interaction (Reporter gene assay) EUB0001148a NR2E1.
In assay [18] the target is Nuclear receptor subfamily 4immunitygroup A member 1 (Homo sapiens) (UniProt P22736). The assay is described as follows: Selectivity interaction (Reporter gene assay) EUB0001148a NR4A1.
Assay [19] has as its target Steroidogenic factor 1 (Homo sapiens) (UniProt Q13285). Kind of assay: Selectivity interaction (Reporter gene assay) EUB0001148a NR5A1.
Assay [20] deals with T3, Alpha trans-inducing protein (Human alphaherpesvirus 1). The assay is described as follows: Selectivity interaction (Reporter gene assay) EUB0001148a UL48.
In assay [21] the target is T4, Retinoic acid receptor RXR-alpha (Homo sapiens). The assay is described as follows: Selectivity interaction (Reporter gene assay) EUB0001148a RXRA.
Assay [22] deals with T5, Peroxisome proliferator-activated receptor gamma (Homo sapiens) (UniProt P37231).
T5 sequence (whole entry): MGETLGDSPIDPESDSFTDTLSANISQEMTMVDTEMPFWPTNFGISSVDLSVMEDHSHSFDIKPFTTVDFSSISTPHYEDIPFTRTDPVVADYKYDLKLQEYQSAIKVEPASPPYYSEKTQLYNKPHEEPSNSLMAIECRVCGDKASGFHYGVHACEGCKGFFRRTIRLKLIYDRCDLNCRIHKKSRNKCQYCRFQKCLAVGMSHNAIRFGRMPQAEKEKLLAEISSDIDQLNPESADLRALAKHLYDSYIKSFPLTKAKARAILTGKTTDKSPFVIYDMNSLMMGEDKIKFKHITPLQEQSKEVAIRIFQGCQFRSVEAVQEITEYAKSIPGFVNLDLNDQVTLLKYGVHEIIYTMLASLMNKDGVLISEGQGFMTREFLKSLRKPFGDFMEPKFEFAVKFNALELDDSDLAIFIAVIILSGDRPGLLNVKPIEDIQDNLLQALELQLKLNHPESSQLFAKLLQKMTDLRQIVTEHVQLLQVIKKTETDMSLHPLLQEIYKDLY
The assay is described as follows: Selectivity interaction (Reporter gene assay) EUB0001141a PPARG. The settings on record: screened at recom. conc., Selectivity number of off-targets 1.0, Selectivity number of targets 19.0, Source Knowledge inhouse.

Assay [23] deals with T1, Hepatocyte nuclear factor 4-alpha (Homo sapiens). The assay is described as follows: Selectivity interaction (Reporter gene assay) EUB0001141a HNF4A.
The target in assay [24] is T2, Nuclear receptor subfamily 2 group C member 1 (Homo sapiens). Kind of assay: Selectivity interaction (Reporter gene assay) EUB0001141a NR2C1.
Assay [25] deals with Nuclear receptor subfamily 2 group E member 1 (Homo sapiens) (UniProt Q9Y466). The assay is described as follows: Selectivity interaction (Reporter gene assay) EUB0001141a NR2E1.
The target of assay [26] is Nuclear receptor subfamily 4immunitygroup A member 1 (Homo sapiens) (UniProt P22736). The assay is described as follows: Selectivity interaction (Reporter gene assay) EUB0001141a NR4A1.
The target in assay [27] is Steroidogenic factor 1 (Homo sapiens) (UniProt Q13285). The assay is described as follows: Selectivity interaction (Reporter gene assay) EUB0001141a NR5A1.
Sequence of Steroidogenic factor 1 (Homo sapiens) (Q13285 whole entry): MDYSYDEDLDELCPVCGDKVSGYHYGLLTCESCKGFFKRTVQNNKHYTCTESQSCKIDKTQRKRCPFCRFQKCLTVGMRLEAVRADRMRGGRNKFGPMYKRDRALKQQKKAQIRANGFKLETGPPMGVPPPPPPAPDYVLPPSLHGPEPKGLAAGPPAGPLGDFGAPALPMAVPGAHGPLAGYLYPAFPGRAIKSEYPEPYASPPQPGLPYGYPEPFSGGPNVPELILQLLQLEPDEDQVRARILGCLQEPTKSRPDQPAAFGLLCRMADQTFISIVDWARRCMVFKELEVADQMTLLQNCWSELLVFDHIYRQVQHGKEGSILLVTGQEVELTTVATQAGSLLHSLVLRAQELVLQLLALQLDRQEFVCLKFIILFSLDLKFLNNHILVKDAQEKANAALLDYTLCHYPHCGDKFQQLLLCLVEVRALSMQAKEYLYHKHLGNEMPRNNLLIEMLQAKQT
Assay [28] concerns the target T3, Alpha trans-inducing protein (Human alphaherpesvirus 1). The assay is described as follows: Selectivity interaction (Reporter gene assay) EUB0001141a UL48.
For assay [29], the target named is T4, Retinoic acid receptor RXR-alpha (Homo sapiens). Kind of assay: Selectivity interaction (Reporter gene assay) EUB0001141a RXRA. The settings on record: reference bexarotene 1 uM, Selectivity number of off-targets 0.0, Selectivity number of targets 1.0, Source Knowledge inhouse.
Assay [30] has as its target T1, Hepatocyte nuclear factor 4-alpha (Homo sapiens). Kind of assay: Selectivity interaction (Reporter gene assay) EUB0001142a HNF4A.
For assay [31], the target named is T2, Nuclear receptor subfamily 2 group C member 1 (Homo sapiens). The assay is described as follows: Selectivity interaction (Reporter gene assay) EUB0001142a NR2C1.
Assay [32] concerns the target Nuclear receptor subfamily 2 group E member 1 (Homo sapiens) (UniProt Q9Y466). Kind of assay: Selectivity interaction (Reporter gene assay) EUB0001142a NR2E1.
In assay [33] the target is Nuclear receptor subfamily 4immunitygroup A member 1 (Homo sapiens) (UniProt P22736). Kind of assay: Selectivity interaction (Reporter gene assay) EUB0001142a NR4A1.
In assay [34] the target is Steroidogenic factor 1 (Homo sapiens) (UniProt Q13285). Kind of assay: Selectivity interaction (Reporter gene assay) EUB0001142a NR5A1.
The target in assay [35] is T3, Alpha trans-inducing protein (Human alphaherpesvirus 1). The assay is described as follows: Selectivity interaction (Reporter gene assay) EUB0001142a UL48.

Turning to `CCO[C@H](COc1ccc(C(F)(F)F)cc1)CSc1ccc(OCC(=O)O)c(C)c1`, the Fold activation in [1] was found to be 1.17; in assay [2], 1.29; in [3], 1.14; in assay [4], 1.09; in assay [5], 1.13. The same molecule came in with a P-value in assay [6] of 0.0052. The Relative activation in [7] turned out to be 0.702%.

As for `CSc1ccc(C(=O)/C=C/c2cc(C)c(OC(C)(C)C(=O)O)c(C)c2)cc1`, the Remaining activity is 0.852 in assay [8] and 0.871 in [12]. Moreover, the Fold activation in assay [9] came to 1.41; in [10], 1.11; in assay [11], 1.25. Also, the P-value in assay [13] amounted to 6.06e-07. The molecule further had a Relative activation in assay [14] of 0.86%.

As to `Cc1cc(SCc2sc(-c3ccc(C(F)(F)F)cc3)nc2C)ccc1OCC(=O)O`, the Fold activation in [15] is 1.1; in assay [16], 1.24; in assay [17], 1.05; in assay [18], 1.02; in [19], 1.05. In addition, in assay [20], the P-value is 0.0001. Besides, the Relative activation in assay [21] came to 0.766%.

`Cc1nc(-c2ccc(C(F)(F)F)cc2)sc1C(=O)NCc1ccc(OC(C)(C)C(=O)O)cc1`: the Fold activation in assay [22] is 2.82; in assay [25] it was 0.997; in assay [27], 1.12. For the same molecule, the values for the Remaining activity in [23], in assay [24] and in assay [26] were 0.924, 0.982 and 0.875, respectively. In addition, the P-value in [28] amounted to 7.52e-07. In addition, the Relative activation in assay [29] came to 0.895%.

On to `CCCCCCCN(CCc1ccc(SC(C)(C)C(=O)O)cc1)C(=O)Nc1ccc(F)cc1F`, for which the Fold activation in [30] turned out to be 1; in [31], 1.16; in [33], 1; in [34], 1. In addition, in assay [32], the Remaining activity is 0.821. In [35], this molecule showed a P-value of 0.0039.
